Series [1] is described as follows: Multiple dosing of AMG 487 in humans. Type of series: in vivo, human. An excerpt: Thus, there remains a need to identify a suitable clinical candidate devoid of the unpredicted accumulation seen with AMG 487. Such compounds are provided herein.
For series [2], the system named is lymphocyte migration toward I-TAC. As to the kind of experiment: Lymphocyte migration toward I-TAC. It counts as cell-based. As to conditions: 100% human plasma, read-out: Migration to ITAC IC50 (nM) 100% Plasma.
In series [3] the target is T1, CXCR3 (Homo sapiens, UniProt P49682).
T1 construct: endogenous in cells
T1 sequence (P49682 1-368): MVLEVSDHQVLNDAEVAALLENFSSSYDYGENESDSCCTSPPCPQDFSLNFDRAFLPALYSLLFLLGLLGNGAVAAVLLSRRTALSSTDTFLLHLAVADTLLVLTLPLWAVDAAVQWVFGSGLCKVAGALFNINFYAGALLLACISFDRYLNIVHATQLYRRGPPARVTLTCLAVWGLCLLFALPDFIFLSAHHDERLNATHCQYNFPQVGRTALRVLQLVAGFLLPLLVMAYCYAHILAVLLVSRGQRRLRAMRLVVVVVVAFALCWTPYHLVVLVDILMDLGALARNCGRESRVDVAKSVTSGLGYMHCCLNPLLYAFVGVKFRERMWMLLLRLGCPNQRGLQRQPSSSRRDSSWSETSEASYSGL
The series is described as follows: HWB receptor occupancy (500 ng/ml ITAC). Type of series: cell-based.

Series [4] concerns cellular migration into the lung. As to the kind of experiment: Cellular migration into the lung following bleomycin challenge. It counts as in vivo. The following applies: following bleomycin challenge (FIG. 1).
The target of series [5] is T1, CXCR3. The series is described as follows: [125I]-IP-10 binding assay (CXCR3 binding). As for the experimental part:
(§1) Unless otherwise noted, all reagents used are available from commercial sources (e.g., Sigma). Test compounds are diluted in DMSO to a concentration that is 40-times the intended final assay concentration; 5 μL are transferred to each well of a 96-well flat-bottomed polypropylene plate (e.g., from Greiner, Inc.). The cells were resuspended in assay buffer (25 mM Hepes, 80 mM NaCl, 1 mM CaCl2, 5 mM MgCl2, 0.2% bovine serum albumin, pH 7.1, stored at 4° C.) at 5 million cells per mL; 100 μL of this cell suspension is then transferred to each well of a 96-well plate containing the diluted test compounds. ^125I-labelled chemokine (purchased from commercial sources, e.g., Amersham, PE Life Sciences) is diluted in assay buffer to a concentration of approximately 60 pM; 100 μL of this chemokine solution is transferred to each well of a 96-well plate containing compounds and cell suspension. The plates are sealed with commercially available foil plate seals (e.g., from E&K Scientific), and stored at 4° C. for 2 to 4 h, shaking gently. […] The plates are counted on a scintillation counter, such as a Packard TopCount. […] Data were analyzed using commercially available software (e.g., Excel from Microsoft, Prism from GraphPad Software Inc.).

For series [6], the target named is T1, CXCR3. The series is described as follows: 125I-I-TAC binding assay (CXCR3 binding). As to conditions: 50% human plasma; primary, activated human lymphocytes. As to the method: as §1
The target of series [7] is CYP3A4 (Homo sapiens, UniProt P08684). The following applies: human hepatocytes and microsomes.
Sequence of CYP3A4 (P08684 whole entry): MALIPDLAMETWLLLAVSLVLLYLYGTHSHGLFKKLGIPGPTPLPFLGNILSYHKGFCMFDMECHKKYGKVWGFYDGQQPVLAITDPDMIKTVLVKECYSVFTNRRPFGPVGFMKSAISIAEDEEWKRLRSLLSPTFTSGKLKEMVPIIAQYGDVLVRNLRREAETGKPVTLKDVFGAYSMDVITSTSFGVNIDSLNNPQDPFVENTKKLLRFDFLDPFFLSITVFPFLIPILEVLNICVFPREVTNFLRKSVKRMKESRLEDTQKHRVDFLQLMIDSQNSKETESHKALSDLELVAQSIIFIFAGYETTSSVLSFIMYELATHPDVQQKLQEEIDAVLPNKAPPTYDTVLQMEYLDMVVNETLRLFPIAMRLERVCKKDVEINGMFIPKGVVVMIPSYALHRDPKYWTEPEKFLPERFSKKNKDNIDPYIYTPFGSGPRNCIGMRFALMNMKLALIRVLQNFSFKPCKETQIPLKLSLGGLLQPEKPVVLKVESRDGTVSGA

Take `CCOc1ccc(-n2c([C@@H](C)N(Cc3cccnc3)C(=O)Cc3ccc(OC(F)(F)F)cc3)nc3ncccc3c2=O)cc1` [AMG 487, reference compound]: the “Accumulation of the compound upon multiple dosing” value in series [1] was “dose-dependent accumulation”. In addition, the IC50 in series [2] amounted to 346 ± 123 nM.

Take `C[C@H](c1nc2ncccc2c(=O)n1-c1ccc(Cl)cc1)N(CC1CCS(=O)(=O)CC1)C(=O)Cc1ccc(C(F)(F)F)c(F)c1` [Compound 1]: the IC50 in series [3] was determined as 9.8 ± 4.4 nM; in series [5] ([125I]-IP-10 Binding IC50 (nM) 50% Plasma, 50% human plasma, primary, activated human lymphocytes) it was 12 ± 5 nM; in series [5] (buffer, read-out: [125I]-IP-10 Binding IC50 (nM) Buffer), 7 ± 2 nM; in series [6], 51 ± 20 nM; in series [2], 65 ± 14 nM. Moreover, in series [4], the “Cellular migration into the lung” value was “inhibits cellular migration into the lung”.

Regarding `CC(c1nc2ncccc2c(=O)n1-c1ccc(O)cc1)N(Cc1cccnc1)C(=O)Cc1ccc(OC(F)(F)F)cc1` (stereo not drawn) [Compound M2], the CYP3A4 inhibition entry in series [7] was “time-dependent inhibitor of CYP3A4”.
